# From patent US6900239B2, “Tumor chemopotentiation using isocoumarin derivatives” (ILWZ ILEX Products, Inc., priority 2000, dated 2005)
# Tests used:
# [1] = system: MM1.S human multiple myeloma cells; assay: Cell viability by MTT assay; assay type: cell-based
# Procedure: NM-3 was dissolved in Mg^2+ and Ca^2+ free phosphate buffered saline (PBS) by adding appropriate volume of 10 N NaOH (final pH<7.0). DEX was dissolved in absolute ethanol and diluted with PBS. Final concentration of ethanol in the culture medium was 0.5% or less. DOX was dissolved in PBS.
# (§1) The human multiple myeloma cell line MM1.S was maintained in RPMI1640 medium supplemented with 10% fetal bovine serum, 100 units/ml penicillin, and 100 μg/ml streptomycin at 37° C. in an atmosphere of 5% CO2 in air. Cells (3×10^4 cells/well) were seeded in 96 well-plates and incubated with increasing concentrations of DEX or DOX in the presence or absence of NM-3. NM-3 was added at concentrations of 0, 50, 100 and 200 μg/ml 2 hours before the addition of DOX or DEX. After 24 hours of DOX or DEX exposure, 10 μl of MTT reagent (Roche Molecular Biochemicals, final concentration 0.5 mg/ml) was added to each well and allowed to incubate for 4 hours. After the incubation, 100 μl of solubilization solution (10% sodium dodecyl sulfate in 0.01M HCl) was added to each well and allowed to incubate overnight. Optical density at 565 nm was determined using a spectrophotometer (Molecular Devices Corp.).
# [2] = system: Lewis Lung Carcinoma (LLC); assay: NM-3 and ionizing radiation, tumor growth; assay type: in vivo, C57BL/6 nude mice
# Procedure: (§2) The effects of NM-3 and IR on tumor growth were assessed in Lewis Lung Carcinoma (LLC), Seg-1, and SQ-20B tumors implanted in C57BL/6 nude mice.
# By day 7, LLC tumors in the control group and the NM-3 group grew to 8.02±1.24 and 6.19±0.44 times original volume, respectively. Animals in these treatment groups were sacrificed on day 7 due to tumor burden. LLC tumors in the IR (20+20 Gy) group initially grew and then regressed to 1.06±0.08 times original volume (day 7). Regression was followed by regrowth to 2.98±0.83 times original volume at day 15 when the experiment was terminated. […] (FIG. 8A)
# [3] = system: Human umbilical vein endothelial cells (HUVEC); assay: HUVEC colony survival with increasing doses of X-rays; assay type: cell-based; details: highest X-ray dose
# Procedure: In another study of HUVEC radiation sensitivity, cells were treated with NM-3 (100 ng/ml) 1 hr prior to exposure of the cells to increasing doses of gamma irradiation (X-rays). The numbers of HUVEC colonies that formed following the different treatments were recorded and normalized to the number of colonies formed under control conditions (see FIG. 2). Increasing doses of X-rays in the absence of NM-3 decreased HUvEC colony survival to a minimal value of 10% survival at the highest dose tested. In the presence of NM-3, HUVEC colony survival decreased to 0.01% of the initial living cells at the highest X-ray dose.
# SQ-20B tumors = assay: NM-3 and ionizing radiation, tumor growth; assay type: in vivo, C57BL/6 nude mice
# Procedure: as §2
# In experiments conducted using SQ-20B tumors, control tumors grew to 5.2±0.94 times original volume by day 20. […] Animals in these two groups were subsequently sacrificed because of tumor burden. […] By day 38, IR treated tumors regrew to twice original volume.
# U266 cells = assay: Cell viability by MTT assay; assay type: cell-based, human
# Procedure: as §1
# (§3) The effects of NM-3 in combination with dexamethasone on the viability of RPM18662 and U266 human multiple meyeloma cells were investigated. Experimental conditions were as described in Example 11, with the exception that cells were seeded at 6×10^3 cells/well and the cells were incubated with the appropriate concentrations of NM-3 and DEX for either 48 or 72 hours prior to addition of the MTT reagent.
# RPMI8662 cells = assay: Cell viability by MTT assay; assay type: cell-based, human
# Procedure: as §1, §3
# [4] = system: human tumor cells and normal mouse cells; assay: Cell growth (WST-1), summary over all cell lines; assay type: cell-based
# Procedure: To determine the extent to which NM-3 [2-(8-hydroxy-6-methoxy-1-oxo-1H-2-benzopyran-3-yl) propionic acid] inhibited the proliferation of, or was cytotoxic toward, human tumor cells and normal mouse cells, a variety of cell lines were grown in the presence of NM-3. The human cell lines used were K562 (leukemia cells), HT29 (colon tumor cells) HT1080 (reticulum blast sarcoma cells), and MCF7 (breast tumor cells). The mouse cells used were NIH3T3 cells (fibroblasts). All cell lines were cultured in 96-well plates to a density of 2-5×10^3 cells/well. Culture medium (RPMI 1640 plus 10% FBS) alone or containing NM-3 at one of several concentrations tested was then added to the cultures which were allowed to grow for an additional 3 days. To assess cell growth, 10 μl of WST-1 reagent (a chromogenic substrate for living cells) was added to each well and incubation continued for 3 hrs at 37° C. Absorbance at 450 nm was then determined using a plate reader.
# IMC carcinoma = assay: Combination with cyclophosphamide, tumor weight; assay type: in vivo, CDF1 mice; details: for Solid Weight mg ± S.D.: day 42
# Procedure: To determine the effect on IMC carcinoma growth of NM-3 treatment combined with simultaneous cyclophosphamide treatment, IMC carcinoma cells (1×10^6 cells per mouse) were subcutaneously transplanted into CDF1 mice (female, 10 weeks old) in the inguinal area. NM-3 which was dissolved using 5% DMSO+Tween80, was continuously orally administered from day 1 to day 41 after transplantation except on day 14, when cyclophosphamide (300 mg/kg) was injected intravenously.
# [5] = in vivo; cited from earlier work
# [6] = NM-3 alone, 50 and 100 μg/ml, 72 hours preincubation
# [7] = NM-3 alone, 48 hour preincubation
# [8] = NM-3 1 mg/kg p.o. days 1-13, 15-41 alone
# [9] = NM-3 5 mg/kg p.o. days 1-13, 15-41 alone
smiles,measurement,setting,value
"COc1cc(O)c2c(=O)oc(C(C)C(=O)O)cc2c1 (centres unmarked) [NM-3, 2-(8-hydroxy-6-methoxy-1-oxo-1H-2-benzopyran-3-yl) propionic acid]",Potentiation of DEX-induced cell death,"[1]; NM-3 50-200 μg/ml added 2 hours before DEX, 24 hours",potentiated DEX-induced cell death
same,Cell viability,"[1]; NM-3 alone, 50-200 μg/ml",only slightly decreased the cell viability
same,Tumor volume,"[2]; NM-3 alone, day 7",6.19±0.44 times original volume
same,Mean tumor volume compared with IR alone,"[2]; NM-3 combined with IR (20+20 Gy), day 3, 4, 5, 9, 11, 13 and 15",significantly reduced mean tumor volume
same,HUVEC colony survival,[3]; NM-3 100 ng/ml 1 hr prior to irradiation,0.01%
same,Increase of sensitivity to X-ray induced lethality,[3]; NM-3 100 ng/ml,approximately 1000 fold
same,Tumor volume,"SQ-20B tumors; NM-3 alone, day 20",4.3±1.03 times original volume
same,Tumor size,"SQ-20B tumors; NM-3 and IR (65 Gy), by day 6",doubled in size
same,Tumor regrowth,"SQ-20B tumors; NM-3 and IR (65 Gy), by day 38, p=0.006 vs IR alone",failed to reach original volume
same,"Tumor volume, % of original volume","SQ-20B tumors; NM-3 and IR (65 Gy), day 23",77%
same,Potentiation of DEX-induced cell death,U266 cells; 48 or 72 hours,potentiated DEX-induced cell death
same,Decrease in cell viability,U266 cells; [6],less evident
same,Cell viability,U266 cells; [7],dose dependent decrease in cell viability
same,Potentiation of DEX-induced cell death,RPMI8662 cells; 48 or 72 hours,potentiated DEX-induced cell death
same,Decrease in cell viability,RPMI8662 cells; [6],less evident
same,Cell viability,RPMI8662 cells; [7],dose dependent decrease in cell viability
same,IC50,[4],> 100 µg/mL
same,Inhibition (%),IMC carcinoma; [8],10.2%
same,Solid Weight mg ± S.D.,IMC carcinoma; [8],"11,093.0 ± 2040.6 mg"
same,Inhibition (%),IMC carcinoma; [9],12.6%
same,Solid Weight mg ± S.D.,IMC carcinoma; [9],10792.4 ± 2979.7 mg
same,Tumor weight versus control,IMC carcinoma; NM-3 alone,did not significantly reduce tumor weight
same,Stability,[5],highly stable
